Reference: patent publication EP0788498B1, “PHENYLOXAZOLIDINONE ANTIMICROBIALS” (priority 1994, dated 1996)
≈ marks a conversion by molar mass, not a printed value. Read-outs that look alike come from different tables or passages of the source.

Columns and labels:
S. pneumoniae UC® 9912 = experiment: Minimum inhibitory concentration (MIC) by agar dilution; assay type: cell-based; settings: Streptococcus pneumoniae
Text: (§1) The oxazolidinone antibacterial agents of this invention have useful activity against a variety of organisms. The in vitro activity of compounds of this invention can be assessed by standard testing procedures such as the determination of minimum inhibitory concentration (MIC) by agar dilution as described in "Methods for Dilution Antimicrobial Susceptibility Tests for Bacteria That Grow Aerobically" (MFT) published Jan. 1983 by the National Committee for Clinical Laboratory Standards, 771 East Lancaster Avenue, Villanova, Pennsylvania 19084, USA. The activity of selected compounds of this invention against Staphylococcus aureus and Streptococcus pneumoniae are shown in Table 1.

S. aureus UC® 9213 = experiment: as above; assay type: cell-based; settings: Staphylococcus aureus
Text: as §1

[1] = UC9912, in vitro, agar dilution, strain UC® 9912, read-out: Minimum Inhibitory Concentration S. pneumoniae UC® 9912
[2] = UC9213, in vitro, agar dilution, strain UC® 9213, read-out: Minimum Inhibitory Concentration S. aureus UC® 9213

SMILES	MIC (S. pneumoniae UC® 9912; [1]) [µg/mL]	MIC (S. aureus UC® 9213; [2]) [µg/mL]	MIC (S. pneumoniae UC® 9912; UC9912, read-out: Minimum Inhibitory Concentration S. pneumoniae UC® 9912) [µg/mL]	MIC (S. aureus UC® 9213; UC9213, read-out: Minimum Inhibitory Concentration S. aureus UC® 9213) [µg/mL]
CC(=O)NC[C@H]1CN(c2ccc(N3CC(N(C)CCF)C3)c(F)c2)C(=O)O1 [Example 3, (S)-N-[[3-[3-fluoro-4-[3-[N-(2-fluoroethyl)-N-methylamino]-1-azetidinyl]phenyl]-2-oxo-5-oxazolidinyl]methyl]acetamide]	8 (≈ 20.9 µM)	16 (≈ 41.8 µM)		
COC1(C)CN(c2ccc(N3C[C@H](CNC(C)=O)OC3=O)cc2F)C1 [Example 6, (S)-N-[[3-[3-fluoro-4-(3-methoxy-3-methyl-1-azetidinyl)phenyl]-2-oxo-5-oxazolidinyl]methyl]acetamide]	4 (≈ 11.4 µM)	8 (≈ 22.8 µM)		
CC(=O)NC[C@H]1CN(c2ccc(N3C[C@@H]4OC(C)(C)O[C@@H]4C3)c(F)c2)C(=O)O1 [Example 8, (S)-N-[[3-[4-(1-Aza-5,5-dimethyl-4,6-dioxabicyclo[3,3,0]octan-1-yl)-3-fluorophenyl]-2-oxo-5-oxazolidinyl]methyl]acetamide]	8 (≈ 20.3 µM)	32 (≈ 81.3 µM)		
CC(=O)NC[C@H]1CN(c2ccc(N3C[C@@H](O)[C@@H](O)C3)c(F)c2)C(=O)O1 [Example 9, (S)-N-[[3-[4-(3,4-cis-dihydroxypyrrolidinyl)-3-fluorophenyl]-2-oxo-5-oxazolidinyl]methyl]acetamide]	2 (≈ 5.66 µM)	8 (≈ 22.6 µM)		
CC(=O)NC[C@H]1CN(c2ccc(N3CCC(=O)C3)c(F)c2)C(=O)O1 [Example 11, (S)-N-((3-(3-fluoro-4-(3-oxopyrrolidinyl)phenyl)-2-oxo-5-oxazolidinyl)methyl)acetamide]	2 (≈ 5.96 µM)	4 (≈ 11.9 µM)		
CC(=O)NC[C@H]1CN(c2ccc(N3CCC(NC(=O)COCc4ccccc4)C3)c(F)c2)C(=O)O1 (stereo partly drawn) [Example 12, (S)-N-((3-(3-Fluoro-4-(3-(phenylmethoxyacetylamino)pyrrolidinyl)phenyl)-2-oxo-5-oxazolidinyl)methyl)acetamide]	2 (≈ 4.13 µM)	8 (≈ 16.5 µM)		
CC(=O)NC[C@H]1CN(c2ccc(N3CCC(NC(=O)CO)C3)c(F)c2)C(=O)O1 (stereo partly drawn) [Example 13, (S)-N-((3-(3-Fluoro-4-(3-(hydroxyacetylamino)pyrrolidinyl)phenyl)-2-oxo-5-oxazolidinyl)methyl)acetamide]	2 (≈ 5.07 µM)	16 (≈ 40.6 µM)		
CN[C@H](CC(C)C)C(=O)N[C@H]1C(=O)N[C@@H](CC(N)=O)C(=O)N[C@H]2C(=O)N[C@H]3C(=O)N[C@H](C(=O)N[C@H](C(=O)O)c4cc(O)cc(O)c4-c4cc3ccc4O)[C@H](O)c3ccc(c(Cl)c3)Oc3cc2cc(c3O[C@@H]2O[C@H](CO)[C@@H](O)[C@H](O)[C@H]2O[C@H]2C[C@](C)(N)[C@H](O)[C@H](C)O2)Oc2ccc(cc2Cl)[C@H]1O [vancomycin, reference compound]			0.5 (≈ 0.345 µM)	1 (≈ 0.69 µM)

More lines, main results first:

MIC (S. pneumoniae UC® 9912; [1]) [µg/mL]	MIC (S. aureus UC® 9213; [2]) [µg/mL]	SMILES	MIC (S. pneumoniae UC® 9912; UC9912, read-out: Minimum Inhibitory Concentration S. pneumoniae UC® 9912) [µg/mL]	MIC (S. aureus UC® 9213; UC9213, read-out: Minimum Inhibitory Concentration S. aureus UC® 9213) [µg/mL]
1 (≈ 2.45 µM)	4 (≈ 9.79 µM)	COC(=O)N[C@H]1CN(c2ccc(N3C[C@H](CNC(C)=O)OC3=O)cc2F)C[C@H]1C (relative stereo) [Example 14]		
2 (≈ 4.9 µM)	16 (≈ 39.2 µM)	CC(=O)NC[C@H]1CN(c2ccc(N3C[C@@H](C)[C@@H](NC(=O)CO)C3)c(F)c2)C(=O)O1 (relative stereo) [Example 15]		
1 (≈ 2.33 µM)	8 (≈ 18.7 µM)	CC(=O)NC[C@H]1CN(c2ccc(N3C[C@@H](C)[C@@H](NS(C)(=O)=O)C3)c(F)c2)C(=O)O1 (relative stereo) [Example 16]		
2 (≈ 5.93 µM)	4 (≈ 11.9 µM)	COC1CN(c2ccc(N3C[C@H](CNC(C)=O)OC3=O)cc2F)C1 [Example 1, (S)-N-[[3-[3-fluoro-4-(3-methoxy-1-azetidinyl]phenyl]-2-oxo-5-oxazolidinyl]methyl]acetamide]		
2 (≈ 6.19 µM)	4 (≈ 12.4 µM)	CC(=O)NC[C@H]1CN(c2ccc(N3CC(O)C3)c(F)c2)C(=O)O1 [Example 2, (S)-N-[[3-[3-fluoro-4-(3-hydroxy-1-azetidinyl)phenyl]-2-oxo-5-oxazolidinyl]methyl]acetamide]		
0.5 (≈ 1.56 µM)	1 (≈ 3.11 µM)	CC(=O)NC[C@H]1CN(c2ccc(N3CC(=O)C3)c(F)c2)C(=O)O1 [Example 4, (S)-N-[[3-[3-fluoro-4-(3-oxo-1-azetidinyl)phenyl]-2-oxo-5-oxazolidinyl]methyl]acetamide]		
1 (≈ 2.85 µM)	4 (≈ 11.4 µM)	CON=C1CN(c2ccc(N3C[C@H](CNC(C)=O)OC3=O)cc2F)C1 [Example 5, (S)-N-[[3-[3-fluoro-4-[3-(methoxyimino)-1-azetidinyl]phenyl]-2-oxo-5-oxazolidinyl]methyl]acetamide]		
2 (≈ 5.93 µM)	8 (≈ 23.7 µM)	CC(=O)NC[C@H]1CN(c2ccc(N3CC(C)(O)C3)c(F)c2)C(=O)O1 [Example 7, (S)-N-[[3-[3-fluoro-4-(3-hydroxy-3-methyl-1-azetidinyl)phenyl]-2 oxo-5-oxazolidinyl]methyl]acetamide]		
1 (≈ 2.96 µM)	2 (≈ 5.93 µM)	CC(=O)NC[C@H]1CN(c2ccc(N3CCC(O)C3)c(F)c2)C(=O)O1 (stereo partly drawn) [Example 10, (S)-N-[[3-[4-(3-hydroxypyrrolidinyl)-3-fluorophenyl]-2-oxo-5-oxazolidinyl]methyl]acetamide]		
